The values that follow are results of earlier work, collected in patent US20140221490A1, “METHODS OF TREATING PAIN” (Hospira, Inc., priority 2011, published 2014).

Where two headings read alike, the source gives them in different places.

For this series the following is noted: cited from earlier work; for Prot. bind., drug fraction bound to protein (fP): plasma; for Cmax: read-out: Cmax, maximum drug concentration in plasma, based on the drug's pharmacokinetics and administration of a normal drug dose; for K1:1, stability constant of 1:1 inclusion complex with HPβCD: literature reference.

With `CC(=O)Nc1ccc(O)cc1` [Acetaminophen], the “Vd, volume of distribution” value was 0.95 L/kg; the “Prot. bind., drug fraction bound to protein (fP)” value (“Prot. bind., drug fraction bound” for short) was 20%; the Cmax is 50 µM.

As to `CC(=O)Nc1nnc(S(N)(=O)=O)s1` [Acetazolamide], the “Vd, volume of distribution” value was 0.2 L/kg; the “Prot. bind., drug fraction bound” value was 95%; the Cmax was 160 µM.

As to `CC(=O)Oc1ccccc1C(=O)O` [Acetylsalicylic acid], the “Vd, volume of distribution” value is 0.15 L/kg; the “K1:1, stability constant of 1:1 inclusion complex with HPβCD” value (shortened to “K1:1, stability constant”) is listed as 100^l M^−1; the “Prot. bind., drug fraction bound” value is 80%; the Cmax is 530 µM.

In the case of `Nc1nc2c(ncn2COCCO)c(=O)[nH]1` [Acyclovir], the “K1:1, stability constant” value was 770^2 M^−1 and the Cmax was 7.2 µM.

With `CC1(C)S[C@@H]2[C@H](NC(=O)[C@H](N)c3ccc(O)cc3)C(=O)N2[C@H]1C(=O)O` [Amoxicillin], the “Vd, volume of distribution” value was 0.3 L/kg; the “Prot. bind., drug fraction bound” value is listed as 20%; the Cmax was 65 µM.

Turning to `CCNC(=O)CCC/C=C\C[C@@H]1[C@@H](/C=C/[C@@H](O)CCc2ccccc2)[C@H](O)C[C@@H]1O` [Bimatoprost], the “Vd, volume of distribution” value was 0.67 L/kg; the “K1:1, stability constant” value is reported as 1,900^i M^−1; the “Prot. bind., drug fraction bound” value is 88%; the Cmax was 0.00019 µM.

As for `CCCCN1CCCCC1C(=O)Nc1c(C)cccc1C` (stereo not shown) [Bupivacaine], the “Vd, volume of distribution” value was 1.0 L/kg; the “K1:1, stability constant” value was 13^5 M^−1; the “Prot. bind., drug fraction bound” value was 95%; the Cmax was 6.9 µM.

Regarding `NC(=O)N1c2ccccc2C=Cc2ccccc21` [Carbamazepine], the “Vd, volume of distribution” value is 1.4 L/kg; the “K1:1, stability constant” value is on record as 630^6 M^−1; the “Prot. bind., drug fraction bound” value was 75%; the Cmax is 34 µM.

Turning to `COc1ccccc1OCCNCC(O)COc1cccc2[nH]c3ccccc3c12` (stereo not shown) [Carvedilol], the “Vd, volume of distribution” value is 1.7 L/kg; the “K1:1, stability constant” value is 580^7 M^−1; the “Prot. bind., drug fraction bound” value is given as 98%; the Cmax was 400 µM.

For the compound `C=CC1=C(C(=O)O)N2C(=O)[C@@H](NC(=O)/C(=N\O)c3csc(N)n3)[C@H]2SC1` [Cefdinir], the “Vd, volume of distribution” value is 0.35 L/kg; the “K1:1, stability constant” value is 59^8 M^−1; the “Prot. bind., drug fraction bound” value is given as 70%; the Cmax was 7.3 µM.

As to `C=CC1=C(C(=O)O)N2C(=O)[C@@H](NC(=O)/C(=N\OCC(=O)O)c3csc(N)n3)[C@H]2SC1` [Cefixime], the “Vd, volume of distribution” value is 1.0 L/kg; the “K1:1, stability constant” value is on record as 1,400^9 M^−1; the Cmax was 360 µM.

For the compound `Cc1ccc(-c2cc(C(F)(F)F)nn2-c2ccc(S(N)(=O)=O)cc2)cc1` [Celecoxib], the “Vd, volume of distribution” value was 6.5 L/kg; the “K1:1, stability constant” value is on record as 630^10 M^−1; the “Prot. bind., drug fraction bound” value is listed as 97%; the Cmax was 1.9 µM.

With `CC(=O)OCC1=C(C(=O)O)N2C(=O)[C@@H](NC(=O)Cc3cccs3)[C@H]2SC1` [Cephalothin], the “Vd, volume of distribution” value is 0.26 L/kg; the “K1:1, stability constant” value is on record as 70^11 M^−1; the “Prot. bind., drug fraction bound” value was 80%; the Cmax was 76 µM.

For `O=C(N[C@H](CO)[C@H](O)c1ccc([N+](=O)[O-])cc1)C(Cl)Cl` [Chloramphenicol], the “Vd, volume of distribution” value is 0.80 L/kg; the “Prot. bind., drug fraction bound” value was 80%; the Cmax was 130 µM.

On to `CNC1=Nc2ccc(Cl)cc2C(c2ccccc2)=[N+]([O-])C1` [Chlordiazepoxide], for which the “Prot. bind., drug fraction bound” value is 96%.

`NS(=O)(=O)c1cc(C2(O)NC(=O)c3ccccc32)ccc1Cl` (stereo not shown) [Chlortalidone (chlorthalidone), chlorthalidone]: the “Vd, volume of distribution” value is 4.0 L/kg; the “K1:1, stability constant” value is listed as 115^14 M^−1; the “Prot. bind., drug fraction bound” value was 75%; the Cmax was 19 µM.

With `C[C@H]1C[C@H]2[C@@H]3CCC4=CC(=O)C=C[C@]4(C)[C@@]3(F)[C@@H](O)C[C@]2(C)[C@@]1(O)C(=O)CO` [Cilest (betamethasone), betamethasone], the “K1:1, stability constant” value is 3,000^16 M^−1; the “Prot. bind., drug fraction bound” value is 64%; the Cmax was 0.29 µM.

For the compound `O=C(O)Cc1ccccc1Nc1c(Cl)cccc1Cl` [Diclofenac Na, diclofenac sodium], the “Vd, volume of distribution” value is 0.17 L/kg; the “Prot. bind., drug fraction bound” value was 99.5%; the Cmax was 13 µM.

Take `Clc1ccc(COC(Cn2ccnc2)c2ccc(Cl)cc2Cl)cc1` (stereo not shown) [Econazole nitrate]: the “K1:1, stability constant” value was 13^20 M^−1; the “Prot. bind., drug fraction bound” value is listed as “(96) %”; the Cmax was 5.5 µM.

On to `C[C@]12CC[C@@H]3c4ccc(O)cc4CC[C@H]3[C@@H]1CC[C@@H]2O` [Estradiol], for which the “Vd, volume of distribution” value was 1 L/kg; the “K1:1, stability constant” value is listed as 2,000^22 M^−1; the “Prot. bind., drug fraction bound” value is 97%; the Cmax was 0.00053 µM.

With `CCc1cccc2c3c([nH]c12)C(CC)(CC(=O)O)OCC3` (stereo not shown) [Etodolac], the “Vd, volume of distribution” value was 0.4 L/kg; the “Prot. bind., drug fraction bound” value is 99%; the Cmax is 170 µM.

On to `O=C1[C@H](CC[C@H](O)c2ccc(F)cc2)[C@@H](c2ccc(O)cc2)N1c1ccc(F)cc1` [Ezetimibe], for which the “Vd, volume of distribution” value is 1.5 L/kg; the “K1:1, stability constant” value is listed as 1,300^23 M^−1; the “Prot. bind., drug fraction bound” value is recorded as 90%; the Cmax was 0.012 µM.

For `CC(C)OC(=O)C(C)(C)Oc1ccc(C(=O)c2ccc(Cl)cc2)cc1` [Fenofibrate], the “Vd, volume of distribution” value is 0.9 L/kg; the “K1:1, stability constant” value is 2^24 M^−1; the “Prot. bind., drug fraction bound” value is 99%; the Cmax is 28 µM. Moreover, the “K1:1, stability constant” value (listed as fenofibrate) is 2 M⁻¹.

Consider `CNCCC(Oc1ccc(C(F)(F)F)cc1)c1ccccc1` (stereo not shown) [Fluoxetine], for which the “Vd, volume of distribution” value was 27 L/kg; the “Prot. bind., drug fraction bound” value is recorded as 95%; the Cmax was 0.18 µM.

`CC(C(=O)O)c1ccc(-c2ccccc2)c(F)c1` (stereo not shown) [Flurbiprofen]: the “Vd, volume of distribution” value was 0.12 L/kg; the “K1:1, stability constant” value was 7,500^26 M^−1; the “Prot. bind., drug fraction bound” value was 99%; the Cmax was 62 µM.

As for `CCC1=C(C)CN(C(=O)NCCc2ccc(S(=O)(=O)NC(=O)N[C@H]3CC[C@H](C)CC3)cc2)C1=O` [Glimepride], the “Prot. bind., drug fraction bound” value was 99.5%.

Take `O=C(CCCN1CCC(O)(c2ccc(Cl)cc2)CC1)c1ccc(F)cc1` [Haloperidol]: the “Vd, volume of distribution” value is 18 L/kg; the “Prot. bind., drug fraction bound” value is recorded as 92%; the Cmax is 0.088 µM.

Consider `CC(C)Cc1ccc(C(C)C(=O)O)cc1` (stereo not shown) [Ibuprofen], for which the “K1:1, stability constant” value was 5,000^31 M^−1 and the Cmax is 280 µM.

On to `COc1ccc2c(c1)c(CC(=O)O)c(C)n2C(=O)c1ccc(Cl)cc1` [Indomethacin], for which the “Vd, volume of distribution” value is […]; the “K1:1, stability constant” value is […]; the “Prot. bind., drug fraction bound” value is recorded as […]; the Cmax is […].

As to `CC(C(=O)O)c1cccc(C(=O)c2ccccc2)c1` (stereo not shown) [Ketoprofen], the “Vd, volume of distribution” value was 0.15 L/kg.

For the compound `CC(=O)O[C@]1(C(C)=O)CC[C@H]2[C@@H]3C[C@H](C)C4=CC(=O)CC[C@]4(C)[C@H]3CC[C@@]21C` [Medroxyprogesterone acetate], the “K1:1, stability constant” value is listed as 260^33 M^−1; the “Prot. bind., drug fraction bound” value is reported as 90%; the Cmax is 1.8 µM.

On to `Clc1ccc(COC(Cn2ccnc2)c2ccc(Cl)cc2Cl)c(Cl)c1` (stereo not shown) [Miconazole], for which the “Vd, volume of distribution” value was 20 L/kg; the “Prot. bind., drug fraction bound” value is reported as 92%; the Cmax is 0.029 µM.

Turning to `Cc1ncc2n1-c1ccc(Cl)cc1C(c1ccccc1F)=NC2` [Midazolam], the “Prot. bind., drug fraction bound” value is on record as 97%.

For the compound `COc1ccc2cc(CCC(C)=O)ccc2c1` [Nabumetone], the “Vd, volume of distribution” value was 0.2 L/kg; the “K1:1, stability constant” value is recorded as 3,000^35 M^−1; the “Prot. bind., drug fraction bound” value is listed as 99%; the Cmax was 160 µM.

As to `COC(=O)C1=C(C)NC(C)=C(C(=O)OCCN(C)Cc2ccccc2)C1c1cccc([N+](=O)[O-])c1` (stereo not shown) [Nicardipine], the “Vd, volume of distribution” value was 8.3 L/kg and the Cmax was 0.53 µM.

As for `COc1ccc2[nH]c([S+]([O-])Cc3ncc(C)c(OC)c3C)nc2c1` (stereo not shown) [Omeprazole], the “Vd, volume of distribution” value is 0.35 L/kg; the “K1:1, stability constant” value is on record as 70^38 M^−1; the “Prot. bind., drug fraction bound” value is listed as 96%; the Cmax was 4.1 µM.

Take `Cc1nccn1CC1CCc2c(c3ccccc3n2C)C1=O` (stereo not shown) [Ondansetron]: the “Vd, volume of distribution” value is 1.7 L/kg; the “K1:1, stability constant” value was 180^39 M^−1; the “Prot. bind., drug fraction bound” value is on record as 75%; the Cmax is 0.9 µM.

In the case of `O=C(O)CCc1nc(-c2ccccc2)c(-c2ccccc2)o1` [Oxaprozin], the “Vd, volume of distribution” value is 0.15 L/kg; the “Prot. bind., drug fraction bound” value is on record as 99%; the Cmax is 780 µM.
